Laboratory results: ChEMBL document CHEMBL5465560, “Selectivity Literature for EUbOPEN Chemogenomic Library” (2024)

What was measured:
[1] = target: Homeodomain-interacting protein kinase 3 (Homo sapiens, UniProt Q9H422); experiment: Selectivity interaction (KinomeScan (DiscoverX)) EUB0000695a HIPK3; conditions: at 100 nM
[2] = target: RAC-beta serine/threonine-protein kinase (Homo sapiens) (UniProt P31751); experiment: Selectivity interaction (KinomeScan (DiscoverX)) EUB0001079a AKT2; conditions: at 1 µM
[3] = target: Mitogen-activated protein kinase 1 (Homo sapiens, UniProt P28482); experiment: Selectivity interaction (KinomeScan (DiscoverX)) EUB0000666a MAPK1; conditions: at 10 µM
[4] = target: T1, NUAK family SNF1-like kinase 2 (Homo sapiens) (UniProt Q9H093); conditions: at 10 µM
T1 sequence (whole entry): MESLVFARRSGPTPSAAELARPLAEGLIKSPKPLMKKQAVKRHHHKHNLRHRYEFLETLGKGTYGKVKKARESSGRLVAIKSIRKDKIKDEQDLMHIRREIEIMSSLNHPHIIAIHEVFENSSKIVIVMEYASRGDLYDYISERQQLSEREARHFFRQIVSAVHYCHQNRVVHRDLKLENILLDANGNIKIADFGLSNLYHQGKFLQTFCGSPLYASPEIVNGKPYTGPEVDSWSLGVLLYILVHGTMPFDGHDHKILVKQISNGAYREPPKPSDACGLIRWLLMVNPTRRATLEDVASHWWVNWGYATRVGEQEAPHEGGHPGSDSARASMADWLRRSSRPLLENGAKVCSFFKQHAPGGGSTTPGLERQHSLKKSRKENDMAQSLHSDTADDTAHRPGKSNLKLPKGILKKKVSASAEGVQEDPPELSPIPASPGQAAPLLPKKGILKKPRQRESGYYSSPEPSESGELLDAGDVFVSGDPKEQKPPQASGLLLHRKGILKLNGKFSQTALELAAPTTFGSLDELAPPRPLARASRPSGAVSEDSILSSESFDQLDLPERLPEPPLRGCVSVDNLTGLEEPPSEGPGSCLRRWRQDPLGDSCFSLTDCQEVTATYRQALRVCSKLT

[5] = target: T2, Histone-arginine methyltransferase CARM1 (Homo sapiens) (UniProt Q86X55); experiment: Selectivity interaction (Methyltransferase screen (radiometric assays, panel of 8 PRMTs, 21 protein lysine methyltransferases, 3 DNA methyltransferases, and one RNA methyltransferase)) EUB0000271b CARM1
T2 sequence (whole entry): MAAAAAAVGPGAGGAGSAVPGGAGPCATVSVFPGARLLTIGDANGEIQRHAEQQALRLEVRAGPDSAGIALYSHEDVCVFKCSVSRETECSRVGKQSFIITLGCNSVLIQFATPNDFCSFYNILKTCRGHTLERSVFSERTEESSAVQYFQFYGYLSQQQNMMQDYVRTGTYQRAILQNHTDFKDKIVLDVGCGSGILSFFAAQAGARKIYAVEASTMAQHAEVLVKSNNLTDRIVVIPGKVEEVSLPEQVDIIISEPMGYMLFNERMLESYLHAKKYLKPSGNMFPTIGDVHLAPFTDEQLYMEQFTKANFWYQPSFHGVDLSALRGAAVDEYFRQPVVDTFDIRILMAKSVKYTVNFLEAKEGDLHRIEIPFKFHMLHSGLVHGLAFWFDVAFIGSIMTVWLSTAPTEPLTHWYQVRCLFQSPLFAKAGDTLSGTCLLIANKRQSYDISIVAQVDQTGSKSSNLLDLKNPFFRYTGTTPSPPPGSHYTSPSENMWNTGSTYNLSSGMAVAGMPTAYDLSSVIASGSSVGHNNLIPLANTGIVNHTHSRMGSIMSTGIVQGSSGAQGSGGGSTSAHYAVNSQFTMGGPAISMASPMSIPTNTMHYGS

[6] = target: T3, Serine/threonine-protein kinase PLK4 (Homo sapiens) (UniProt O00444); experiment: Selectivity interaction (KinomeScan (DiscoverX)) EUB0001619a PLK4; conditions: at 1 µM
T3 sequence (whole entry): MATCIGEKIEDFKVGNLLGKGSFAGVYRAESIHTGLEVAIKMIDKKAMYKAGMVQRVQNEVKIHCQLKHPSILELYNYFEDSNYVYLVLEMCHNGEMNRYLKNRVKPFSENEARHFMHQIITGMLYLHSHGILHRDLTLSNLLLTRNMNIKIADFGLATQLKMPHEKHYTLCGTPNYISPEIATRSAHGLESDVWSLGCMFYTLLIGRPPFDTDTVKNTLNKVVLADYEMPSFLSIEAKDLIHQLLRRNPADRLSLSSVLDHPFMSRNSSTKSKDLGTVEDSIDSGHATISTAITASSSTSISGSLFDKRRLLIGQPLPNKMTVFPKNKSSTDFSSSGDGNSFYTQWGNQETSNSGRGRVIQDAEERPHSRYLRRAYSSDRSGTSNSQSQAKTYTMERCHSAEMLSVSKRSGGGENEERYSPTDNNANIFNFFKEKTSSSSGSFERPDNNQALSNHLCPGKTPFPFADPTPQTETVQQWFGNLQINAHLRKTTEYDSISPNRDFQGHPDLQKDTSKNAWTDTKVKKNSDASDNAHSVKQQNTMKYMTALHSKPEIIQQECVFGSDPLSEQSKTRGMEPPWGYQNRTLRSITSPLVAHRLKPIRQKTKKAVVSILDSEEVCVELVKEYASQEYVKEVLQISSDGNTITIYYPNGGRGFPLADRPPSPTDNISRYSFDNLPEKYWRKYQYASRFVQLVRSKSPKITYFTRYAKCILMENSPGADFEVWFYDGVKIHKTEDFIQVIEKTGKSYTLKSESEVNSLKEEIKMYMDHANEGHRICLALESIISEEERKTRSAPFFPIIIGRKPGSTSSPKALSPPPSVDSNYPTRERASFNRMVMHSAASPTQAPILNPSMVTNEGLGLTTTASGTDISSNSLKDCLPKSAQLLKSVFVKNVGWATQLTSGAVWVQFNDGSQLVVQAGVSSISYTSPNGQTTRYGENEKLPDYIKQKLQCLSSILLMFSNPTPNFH

[7] = target: Tyrosine-protein kinase JAK2 (Homo sapiens, UniProt O60674); experiment: Selectivity interaction (SelectScreen Kinase Profiling (Thermo Fisher Scientific)) EUB0001558a JAK2; conditions: at 1 µM
[8] = target: Cyclin-dependent kinase 2 (Homo sapiens, UniProt P24941); experiment: Selectivity interaction (ActivX KiNativ screen (kinase selectivity in THP-1 cell lysates)) EUB0000639a CDK2; type: subcellular; conditions: lysate, at 5 µM
[9] = target: Mitogen-activated protein kinase kinase kinase 11 (Homo sapiens) (UniProt Q16584); experiment: Selectivity interaction (ActivX KiNativ screen (kinase selectivity in THP-1 cell lysates)) EUB0000639a MAP3K11; type: subcellular; conditions: lysate, at 0.2 µM
[10] = target: Cyclin-dependent kinase 18 (Homo sapiens) (UniProt Q07002); experiment: Selectivity interaction (KinomeScan (DiscoverX)) EUB0000655a CDK18; conditions: at 10 µM
[11] = target: Serine/threonine-protein kinase OSR1 (Homo sapiens) (UniProt O95747); experiment: Selectivity interaction (Ambit KINOMEscan and KiNATiv profiling in Jurkat cells) EUB0000090b OXSR1; type: cell-based; conditions: at 1 µM
Sequence of Serine/threonine-protein kinase OSR1 (Homo sapiens) (O95747 2-527 limits assumed): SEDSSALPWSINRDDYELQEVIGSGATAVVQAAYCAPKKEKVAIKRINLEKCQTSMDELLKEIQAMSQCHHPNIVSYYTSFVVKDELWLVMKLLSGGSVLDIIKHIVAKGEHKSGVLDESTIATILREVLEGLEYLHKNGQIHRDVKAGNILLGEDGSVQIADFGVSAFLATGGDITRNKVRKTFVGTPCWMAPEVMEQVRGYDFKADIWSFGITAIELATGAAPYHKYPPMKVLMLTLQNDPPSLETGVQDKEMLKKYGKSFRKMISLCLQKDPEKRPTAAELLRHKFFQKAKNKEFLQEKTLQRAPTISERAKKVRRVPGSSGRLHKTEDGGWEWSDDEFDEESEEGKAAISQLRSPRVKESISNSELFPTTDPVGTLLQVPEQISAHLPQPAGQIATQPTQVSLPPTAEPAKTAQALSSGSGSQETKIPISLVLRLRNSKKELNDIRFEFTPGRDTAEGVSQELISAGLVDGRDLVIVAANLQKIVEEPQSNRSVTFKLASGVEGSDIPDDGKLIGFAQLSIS

Sequence of Mitogen-activated protein kinase kinase kinase 11 (Homo sapiens) (Q16584 whole entry, looked up): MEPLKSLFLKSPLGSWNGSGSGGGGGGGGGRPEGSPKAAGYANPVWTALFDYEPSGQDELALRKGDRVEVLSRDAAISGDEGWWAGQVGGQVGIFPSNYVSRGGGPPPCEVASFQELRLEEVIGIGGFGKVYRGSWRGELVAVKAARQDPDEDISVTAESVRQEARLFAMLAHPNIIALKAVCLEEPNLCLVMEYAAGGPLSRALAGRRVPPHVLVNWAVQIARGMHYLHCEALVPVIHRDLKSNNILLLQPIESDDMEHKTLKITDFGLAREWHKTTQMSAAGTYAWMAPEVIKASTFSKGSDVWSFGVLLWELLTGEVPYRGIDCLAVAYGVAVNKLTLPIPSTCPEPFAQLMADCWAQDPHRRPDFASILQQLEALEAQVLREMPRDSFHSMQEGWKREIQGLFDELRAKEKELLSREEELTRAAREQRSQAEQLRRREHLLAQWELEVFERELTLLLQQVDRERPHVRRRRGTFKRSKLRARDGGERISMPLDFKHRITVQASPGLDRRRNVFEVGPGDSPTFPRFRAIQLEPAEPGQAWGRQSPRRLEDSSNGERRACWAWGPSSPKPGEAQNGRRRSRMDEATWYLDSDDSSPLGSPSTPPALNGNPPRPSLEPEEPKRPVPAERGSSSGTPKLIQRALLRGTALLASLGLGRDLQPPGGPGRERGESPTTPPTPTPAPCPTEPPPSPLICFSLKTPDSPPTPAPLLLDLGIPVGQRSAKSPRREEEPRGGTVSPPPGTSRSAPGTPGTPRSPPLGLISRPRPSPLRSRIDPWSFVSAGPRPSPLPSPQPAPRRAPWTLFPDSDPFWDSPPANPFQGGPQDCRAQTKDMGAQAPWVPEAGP
Sequence of Mitogen-activated protein kinase 1 (P28482 whole entry): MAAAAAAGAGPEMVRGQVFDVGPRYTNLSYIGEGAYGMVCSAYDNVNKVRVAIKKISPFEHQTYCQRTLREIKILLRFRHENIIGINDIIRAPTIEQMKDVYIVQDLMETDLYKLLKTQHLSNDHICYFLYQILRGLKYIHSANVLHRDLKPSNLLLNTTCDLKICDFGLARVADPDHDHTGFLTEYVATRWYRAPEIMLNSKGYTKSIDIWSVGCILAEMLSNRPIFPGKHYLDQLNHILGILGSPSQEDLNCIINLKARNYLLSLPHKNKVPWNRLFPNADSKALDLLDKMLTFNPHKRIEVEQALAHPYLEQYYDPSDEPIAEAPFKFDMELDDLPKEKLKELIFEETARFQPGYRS
Sequence of RAC-beta serine/threonine-protein kinase (Homo sapiens) (P31751 whole entry): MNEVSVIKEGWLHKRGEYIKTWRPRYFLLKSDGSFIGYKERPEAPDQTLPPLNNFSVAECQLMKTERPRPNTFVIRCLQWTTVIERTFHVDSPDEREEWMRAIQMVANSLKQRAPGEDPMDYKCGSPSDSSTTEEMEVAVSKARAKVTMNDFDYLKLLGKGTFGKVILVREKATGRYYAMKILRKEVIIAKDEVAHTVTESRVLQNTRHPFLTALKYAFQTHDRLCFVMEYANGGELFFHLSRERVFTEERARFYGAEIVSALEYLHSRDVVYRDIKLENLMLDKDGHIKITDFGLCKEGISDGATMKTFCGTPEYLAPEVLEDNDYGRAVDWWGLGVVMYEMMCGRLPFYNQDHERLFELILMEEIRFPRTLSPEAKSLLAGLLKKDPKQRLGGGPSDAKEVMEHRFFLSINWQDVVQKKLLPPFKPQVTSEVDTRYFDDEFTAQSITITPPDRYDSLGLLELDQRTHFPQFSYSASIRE
Sequence of Homeodomain-interacting protein kinase 3 (Q9H422 whole entry, looked up): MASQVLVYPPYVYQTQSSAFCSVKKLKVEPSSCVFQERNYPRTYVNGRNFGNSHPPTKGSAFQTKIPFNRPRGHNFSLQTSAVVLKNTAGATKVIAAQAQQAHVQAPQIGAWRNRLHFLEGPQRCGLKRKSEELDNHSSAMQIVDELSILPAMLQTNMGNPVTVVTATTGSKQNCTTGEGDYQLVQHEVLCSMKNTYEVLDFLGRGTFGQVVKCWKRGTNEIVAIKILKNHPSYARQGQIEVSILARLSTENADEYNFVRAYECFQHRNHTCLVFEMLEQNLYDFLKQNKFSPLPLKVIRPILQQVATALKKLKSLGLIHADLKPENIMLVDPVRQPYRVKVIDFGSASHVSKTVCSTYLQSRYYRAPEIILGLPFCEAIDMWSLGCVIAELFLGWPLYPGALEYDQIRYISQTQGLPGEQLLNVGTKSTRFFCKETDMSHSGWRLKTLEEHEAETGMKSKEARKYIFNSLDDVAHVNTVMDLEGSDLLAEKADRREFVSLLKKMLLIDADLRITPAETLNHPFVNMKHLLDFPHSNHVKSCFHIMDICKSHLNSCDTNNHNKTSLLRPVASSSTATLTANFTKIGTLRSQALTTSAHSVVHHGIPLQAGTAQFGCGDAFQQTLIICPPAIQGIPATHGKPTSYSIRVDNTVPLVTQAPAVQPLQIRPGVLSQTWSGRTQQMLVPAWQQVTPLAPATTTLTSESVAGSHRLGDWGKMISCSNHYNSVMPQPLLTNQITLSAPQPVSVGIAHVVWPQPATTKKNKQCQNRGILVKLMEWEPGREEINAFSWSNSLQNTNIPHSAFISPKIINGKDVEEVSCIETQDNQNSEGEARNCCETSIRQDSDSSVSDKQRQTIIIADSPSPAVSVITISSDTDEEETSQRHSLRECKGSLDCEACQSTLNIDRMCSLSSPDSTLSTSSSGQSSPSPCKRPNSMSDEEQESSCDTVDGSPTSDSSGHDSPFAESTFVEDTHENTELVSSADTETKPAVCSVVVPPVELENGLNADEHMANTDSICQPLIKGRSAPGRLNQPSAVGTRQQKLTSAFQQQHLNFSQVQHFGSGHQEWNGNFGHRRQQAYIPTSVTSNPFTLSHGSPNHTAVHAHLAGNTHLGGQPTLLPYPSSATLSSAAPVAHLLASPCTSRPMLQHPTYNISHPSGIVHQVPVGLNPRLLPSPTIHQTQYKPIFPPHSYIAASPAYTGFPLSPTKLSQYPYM
Sequence of Tyrosine-protein kinase JAK2 (O60674 whole entry): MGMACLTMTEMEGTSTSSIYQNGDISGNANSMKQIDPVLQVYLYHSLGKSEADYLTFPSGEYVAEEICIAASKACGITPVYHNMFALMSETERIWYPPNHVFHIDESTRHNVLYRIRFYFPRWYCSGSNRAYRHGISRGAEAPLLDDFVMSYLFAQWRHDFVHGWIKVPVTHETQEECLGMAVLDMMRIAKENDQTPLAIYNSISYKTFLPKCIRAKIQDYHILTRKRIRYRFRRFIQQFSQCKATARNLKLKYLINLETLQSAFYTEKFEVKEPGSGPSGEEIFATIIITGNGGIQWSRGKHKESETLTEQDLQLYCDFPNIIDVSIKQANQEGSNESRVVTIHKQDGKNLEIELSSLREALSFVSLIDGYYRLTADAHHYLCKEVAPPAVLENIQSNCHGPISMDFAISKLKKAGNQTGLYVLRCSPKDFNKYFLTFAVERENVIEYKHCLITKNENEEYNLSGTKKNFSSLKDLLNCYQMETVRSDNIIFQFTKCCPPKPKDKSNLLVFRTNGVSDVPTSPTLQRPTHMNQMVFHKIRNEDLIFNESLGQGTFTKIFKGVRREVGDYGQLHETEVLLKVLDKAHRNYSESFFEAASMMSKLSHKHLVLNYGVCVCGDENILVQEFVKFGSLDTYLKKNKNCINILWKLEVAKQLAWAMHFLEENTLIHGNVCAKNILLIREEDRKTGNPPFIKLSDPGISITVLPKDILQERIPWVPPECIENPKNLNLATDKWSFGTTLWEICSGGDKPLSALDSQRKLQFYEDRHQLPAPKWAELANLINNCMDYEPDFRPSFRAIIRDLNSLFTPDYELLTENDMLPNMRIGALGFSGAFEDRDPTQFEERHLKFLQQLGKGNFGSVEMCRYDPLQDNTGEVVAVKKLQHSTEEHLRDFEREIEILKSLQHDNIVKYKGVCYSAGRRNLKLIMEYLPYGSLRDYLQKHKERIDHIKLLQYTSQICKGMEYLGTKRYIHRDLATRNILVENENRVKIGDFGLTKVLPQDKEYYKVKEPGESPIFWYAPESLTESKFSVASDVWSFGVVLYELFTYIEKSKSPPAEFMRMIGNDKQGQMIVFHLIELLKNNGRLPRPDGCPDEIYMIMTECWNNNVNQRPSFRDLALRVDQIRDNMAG
Sequence of Cyclin-dependent kinase 18 (Homo sapiens) (Q07002 whole entry): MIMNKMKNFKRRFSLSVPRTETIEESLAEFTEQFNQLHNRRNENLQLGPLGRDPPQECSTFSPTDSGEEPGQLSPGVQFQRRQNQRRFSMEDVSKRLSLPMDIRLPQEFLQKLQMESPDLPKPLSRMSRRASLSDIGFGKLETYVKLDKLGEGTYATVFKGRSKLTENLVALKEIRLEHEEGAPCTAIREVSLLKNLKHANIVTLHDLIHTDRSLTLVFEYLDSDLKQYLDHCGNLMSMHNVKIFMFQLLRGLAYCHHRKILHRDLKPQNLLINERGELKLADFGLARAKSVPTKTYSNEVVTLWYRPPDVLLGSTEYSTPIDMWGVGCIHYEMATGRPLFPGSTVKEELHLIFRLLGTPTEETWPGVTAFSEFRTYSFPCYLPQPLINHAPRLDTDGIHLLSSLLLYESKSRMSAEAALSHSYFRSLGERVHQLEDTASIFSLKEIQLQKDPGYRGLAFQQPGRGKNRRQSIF

Cc1cc(F)c(C(=O)Nc2cccc(-c3nncn3C(C)C)n2)cc1-n1cnc(C2CC2)c1
% of control [1]: 100%

Nc1cnc(N2CCc3cc(S(=O)(=O)Nc4c(F)cc(Cl)cc4F)cc(N4CCCC4=O)c32)nc1 [TP-020n]
% of control [2]: 100%

O=C(NOC[C@H](O)CO)c1ccc(F)c(F)c1Nc1ccc(I)cc1F
% of control [3]: 100%

Cc1cc([C@@H](C)Nc2ccccc2C(=O)O)c2nc(N3CCOCC3)cc(=O)n2c1 [AZD-6482]
% of control [4]: 84%

Cc1cc(C)cc([C@@H]2c3cc(C)ccc3NC(=O)CN2C(=O)c2ccc(Br)s2)c1
% of activity ([5]; at 1 µM): 98%
% of activity ([5]; at 10 µM): 96.3%

N#Cc1cccc(-c2c[nH]c3ncnc(N4CCOCC4)c23)c1
% of control [6]: 33%

CC(C)(O)[C@H](F)CN1Cc2cc(NC(=O)c3cnn4cccnc34)c(N3CCOCC3)cc2C1=O
% of inhibition [7]: 80.5%

CC[C@@H]1[C@H](F)C(=O)N[C@@H]1COc1nccc2cc(C(N)=O)c(OC)cc12 [ZIMLOVISERTIB]
% of inhibition [8]: 3%
% of inhibition [9]: -15.6%

CN(C)CCOc1ccc(-c2nc(-c3ccncc3)c(-c3ccc4c(c3)CC/C4=N\O)[nH]2)cc1
% of control [10]: 100%

CN(C)C/C=C/C(=O)Nc1ccc(C(=O)N2CCCC(Nc3ncc(Cl)c(-c4c[nH]c5ccccc45)n3)C2)cc1 (configuration not stated)
% of control [11]: 87%
